Experimental data: US20250213707A1, “COMPOUND FOR INCREASING EFFICACY OF ONCOLYTIC VIRUSES” (ABLEVIA BIOTECH GMBH, priority 2022, published 2025)

Test system: IgG from human donors (anti-AAV antibodies)
Assay: Screen for anti-AAV antibodies in human sera, 2452 linear 15-amino-acid AAV peptides on microarrays (Table 1)
Format: binding
Design: key to group I: X: the deduplicated aggregate of the respective top 10 peptide hits for each donor was compiled and designated as group I; key to group II: X: the deduplicated aggregate of the respective top 25 peptide hits for each donor was compiled and designated as group II; key to group III: X: the deduplicated aggregate of the respective top 50 peptide hits for each donor was compiled and designated as group III
Conditions: membership in deduplicated aggregate of top 10 peptide hits for each donor; human donor IgG binding to linear 15-amino-acid AAV peptides on microarray, fluorescence
Procedure, shortened: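 Peptide hits were grouped I to IV by pooling each donor's top 10, 25, 50 or 250 background-corrected fluorescence signals, after deduplication. Signals came from donor IgG, purified on protein G, bound to arrayed 15-residue linear peptides (2452 total) spanning 16 AAV sequences.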

Row | Substance | group I
1 | TTSGTTNQSRLLFS (REGION 1..14: note = peptide derived from viral capsid protein) [SEQ ID NO: 1997] | X

Same assay, conditions: membership in deduplicated aggregate of top 25 peptide hits for each donor; human donor IgG binding to linear 15-amino-acid AAV peptides on microarray, fluorescence

Row | Substance | group II
2 | GQTGESESVPDPQP [SEQ ID NO: 2059] | X
3 | TTSGTTNQSRLLFS (REGION 1..14: note = peptide derived from viral capsid protein) [SEQ ID NO: 1997] | X
4 | ANPGIAMATHKDDE [SEQ ID NO: 2060] | X

Same assay, conditions: membership in deduplicated aggregate of top 50 peptide hits for each donor; human donor IgG binding to linear 15-amino-acid AAV peptides on microarray, fluorescence

Row | Substance | group III
5 | GQTGESESVPDPQP [SEQ ID NO: 2059] | X
6 | TTSGTTNQSRLLFS (REGION 1..14: note = peptide derived from viral capsid protein) [SEQ ID NO: 1997] | X
7 | ANPGIAMATHKDDE [SEQ ID NO: 2060] | X

Test system: polyclonal antibody ab6982
Assay: Epitope mapping of polyclonal antibody ab6982 against cyclic peptides of Ad5 fiber and hexon (peptide array)
Format: binding, rabbits
Conditions: cyclic peptides of fiber protein (clusters 1-7)
Excerpt: Polyclonal antibody ab6982 (Abcam) was generated by immunizing rabbits with purified AdV. It reacts with all capsid proteins of Ad5 including hexon, fiber and penton. It was shown that the antibody neutralizes Ad5 infection in a bioassay at 1000 adenovirus 5 particles/ml, a 50% inactivation of the adenovirus can be achieved at a 1/25,000 dilution of the antibody. In order to identify epitopic regions that could contain peptides for ab6982 paratope binding, the antibody was mapped against the sequences of fiber (NCBI Reference Sequence: AP 000226.1) and hexon protein (GenBank: BAG48782.1). […] The binding signal of this antibody to the array yielded several peptides that were aligned and clustered against the sequence of the protein. The peptide clusters were named cluster1-7 (fiber protein) and clusters8-16 (hexon protein) according to their ranked order of cyclic peptide hits (i.e. cluster contains the strongest binders, cluster2 the second strongest etc.). Below are the aligments of the corresponding peptides that bind to polyclonal antibody ab6982.

Row | Substance | antibody binding signal ranking from the microarray experiment
8 | GQTGESESVPDPQP [SEQ ID NO: 2059] | 095
9 | TTSGTTNQSRLLFS (REGION 1..14: note = peptide derived from viral capsid protein) [SEQ ID NO: 1997] | 041
10 | ANPGIAMATHKDDE [SEQ ID NO: 2060] | 100
11 | 194 (FATSSYTFSY) [compound 194] | 043
12 | 177 (FSWDWSG) [compound 177] | 186
13 | 189 (LNNSFLDPEY) [compound 189] | 114
14 | 179 (FLDPEYWNFR) [compound 179] | 017
15 | 186 (NNSFLDPEYW) [compound 186] | 068
16 | 191 (LNNSFLD) [compound 191] | 180
17 | 204 (NYINEIFATSSYT) [compound 204] | 119
18 | 178 (SWDWSGH) [compound 178] | 193
19 | 199 (NEIFATSSYTFSY) [compound 199] | 092
20 | 195 (YINEIFATSSYTF) [compound 195] | 055
21 | 182 (LNNSFLDPEYWNF) [compound 182] | 033
22 | 180 (SFLDPEYWNF) [compound 180] | 018
23 | 200 (ATSSYTFSYI) [compound 200] | 097
24 | 192 (NSFLDPEYWN) [compound 192] | 187
25 | 190 (LDPEYWNFRN) [compound 190] | 155
26 | 184 (FLDPEYW) [compound 184] | 050
27 | 183 (NNSFLDPEYWNFR) [compound 183] | 034
28 | 207 (EIFATSSYTFSYI) [compound 207] | 200
29 | 175 (AYSMSFS) [compound 175] | 167
30 | 201 (HNYINEIFATSSY) [compound 201] | 099
31 | 197 (ATSSYTF) [compound 197] | 080
32 | 181 (PEYWNFR) [compound 181] | 031

Same assay, conditions: cyclic peptides of hexon protein (clusters 8-16)

Row | Substance | antibody binding signal ranking from the microarray experiment
33 | 252 (EEDDDNEDEVDEQ) [compound 252] | 148
34 | 227 (EVDEQAE) [compound 227] | 17
35 | 234 (DEVDEQAEQQ) [compound 234] | 26
36 | 264 (EAATALEINL) [compound 264] | 124
37 | 262 (AATALEINLE) [compound 262] | 043
38 | 271 (DVDIETPDTHISY) [compound 271] | 048
39 | 236 (NLEEEDDDNEDEV) [compound 236] | 029
40 | 218 (LEINLEEEDDDNE) [compound 218] | 13
41 | 297 (YKDRMYSFFR) [compound 297] | 160
42 | 266 (LYSEDVDIETPDT) [compound 266] | 040
43 | 282 (PKVVLYSEDVDIE) [compound 282] | 061
44 | 300 (DSIGDRTRYF) [compound 300] | 095
45 | 289 (DRMYSFF) [compound 289] | 086
46 | 280 (YSEDVDIETPDTH) [compound 280] | 059
47 | 254 (EEEDDDNEDEVDE) [compound 254] | 188
48 | 230 (EDEVDEQAEQQKT) [compound 230] | 21
49 | 309 (FLVQMLANYNIGY) [compound 309] | 184
50 | 277 (DIETPDTHIS) [compound 277] | 055
51 | 279 (IETPDTHISY) [compound 279] | 058
52 | 307 (MLANYNIGYQGFY) [compound 307] | 123
53 | 250 (EDDDNEDEVD) [compound 250] | 121

Row | Substance | antibody binding signal ranking from the microarray experiment
54 | 221 (ATALEINLEE) [compound 221] | 19
55 | 274 (ETPDTHI) [compound 274] | 051
56 | 245 (DDNEDEV) [compound 245] | 078
57 | 302 (GDRTRYFSMW) [compound 302] | 101
58 | 210 (EAATALEINLEEE) [compound 210] | 03
59 | 213 (EINLEEE) [compound 213] | 06
60 | 209 (ATALEINLEEEDD) [compound 209] | 02
61 | 253 (EEDDDNEDEV) [compound 253] | 185
62 | 303 (DRMYSFFRNF) [compound 303] | 072
63 | 292 (SYKDRMYSFF) [compound 292] | 120
64 | 256 (DNEDEVDEQAEQQ) [compound 256] | 031
65 | 244 (NLEEEDD) [compound 244] | 065
66 | 261 (WDEAATALEINLE) [compound 261] | 042
67 | 301 (DSIGDRTRYFSMW) [compound 301] | 100
68 | 214 (ALEINLEEED) [compound 214] | 07
69 | 229 (VDEQAEQ) [compound 229] | 20
70 | 222 (INLEEEDDDN) [compound 222] | 23
71 | 216 (TALEINLEEE) [compound 216] | 09
72 | 310 (NIGYQGF) [compound 310] | 187
73 | 243 (EDDDNED) [compound 243] | 063
74 | 294 (KDRMYSF) [compound 294] | 143

Row | Substance | antibody binding signal ranking from the microarray experiment
75 | 255 (EVDEQAEQQK) [compound 255] | 030
76 | 259 (VDEQAEQQKTHVF) [compound 259] | 041
77 | 232 (DEVDEQAEQQKTH) [compound 232] | 24
78 | 285 (EDVDIETPDT) [compound 285] | 070
79 | 298 (TRYFSMW) [compound 298] | 073
80 | 270 (VLYSEDVDIE) [compound 270] | 047
81 | 242 (DDNEDEVDEQ) [compound 242] | 057
82 | 267 (KVVLYSEDVDIET) [compound 267] | 044
83 | 278 (EDVDIETPDTHIS) [compound 278] | 056
84 | 291 (IPESYKDRMYSFF) [compound 291] | 107
85 | 311 (QMLANYNIGYQGF) [compound 311] | 190
86 | 265 (LYSEDVDIET) [compound 265] | 039
87 | 248 (EEEDDDNEDE) [compound 248] | 097
88 | 223 (NLEEEDDDNE) [compound 223] | 27
89 | 224 (DEVDEQA) [compound 224] | 10
90 | 239 (INLEEEDDDNEDE) [compound 239] | 035
91 | 215 (LEINLEEEDD) [compound 215] | 08
92 | 304 (SYKDRMYSFFRNF) [compound 304] | 099
93 | 219 (AATALEINLEEED) [compound 219] | 14
